In the CheMixHub viscosity set:

Assay: xn = mol fraction of the nth substance listed

ClC(Cl)(Cl)Cl + CCO
Details	viscosity [mPa·s]
298.15 K, 101 kPa, x2 = 0.0247	0.89
298.15 K, 101 kPa, x2 = 0.0475	0.884
298.15 K, 101 kPa, x2 = 0.0769	0.883
298.15 K, 101 kPa, x2 = 0.1	0.872
298.15 K, 101 kPa, x2 = 0.1289	0.874
298.15 K, 101 kPa, x2 = 0.2438	0.886
298.15 K, 101 kPa, x2 = 0.27	0.886
298.15 K, 101 kPa, x2 = 0.37	0.915
298.15 K, 101 kPa, x2 = 0.3813	0.931
298.15 K, 101 kPa, x2 = 0.45	0.947
298.15 K, 101 kPa, x2 = 0.5136	0.974
298.15 K, 101 kPa, x2 = 0.645	1.023
298.15 K, 101 kPa, x2 = 0.69	1.037
298.15 K, 101 kPa, x2 = 0.768	1.068
298.15 K, 101 kPa, x2 = 0.77	1.064
298.15 K, 101 kPa, x2 = 0.83	1.079
298.15 K, 101 kPa, x2 = 0.8966	1.108
298.15 K, 101 kPa, x2 = 0.93	1.091
298.15 K, 101 kPa, x2 = 0.9687	1.1
303 K, 101.33 kPa, x2 = 0.37	0.8302
303 K, 101.33 kPa, x2 = 0.45	0.8567
303 K, 101.33 kPa, x2 = 0.53	0.8727
303 K, 101.33 kPa, x2 = 0.64	0.9314
303 K, 101.33 kPa, x2 = 0.69	0.9449
303 K, 101.33 kPa, x2 = 0.73	0.9479
303 K, 101.33 kPa, x2 = 0.83	0.9806
303 K, 101.33 kPa, x2 = 0.89	0.9857
303 K, 101.33 kPa, x2 = 0.91	1.007
303 K, 101.33 kPa, x2 = 0.93	0.9995
303 K, 101.33 kPa, x2 = 0.95	1.008
303.15 K, 101 kPa, x2 = 0.0565	0.8183
303.15 K, 101 kPa, x2 = 0.0932	0.8112
303.15 K, 101 kPa, x2 = 0.1798	0.8093
303.15 K, 101 kPa, x2 = 0.312	0.8313
303.15 K, 101 kPa, x2 = 0.4579	0.8759
303.15 K, 101 kPa, x2 = 0.5273	0.8994
303.15 K, 101 kPa, x2 = 0.6028	0.924
303.15 K, 101 kPa, x2 = 0.689	0.949
303.15 K, 101 kPa, x2 = 0.7868	0.974
303.15 K, 101 kPa, x2 = 0.867	0.9867
303.15 K, 101 kPa, x2 = 0.9134	0.9917
303.15 K, 101 kPa, x2 = 0.9566	0.9933
303.15 K, 101 kPa, x2 = 0.9724	0.9934
308.15 K, 101 kPa, x2 = 0.0247	0.773
308.15 K, 101 kPa, x2 = 0.0475	0.768
308.15 K, 101 kPa, x2 = 0.0769	0.762
308.15 K, 101 kPa, x2 = 0.1289	0.759
308.15 K, 101 kPa, x2 = 0.2438	0.768
308.15 K, 101 kPa, x2 = 0.3813	0.783
308.15 K, 101 kPa, x2 = 0.5136	0.825
308.15 K, 101 kPa, x2 = 0.645	0.857
308.15 K, 101 kPa, x2 = 0.768	0.891
308.15 K, 101 kPa, x2 = 0.8966	0.923
308.15 K, 101 kPa, x2 = 0.9687	0.914
313 K, 101.33 kPa, x2 = 0.37	0.7056
313 K, 101.33 kPa, x2 = 0.45	0.7242
313 K, 101.33 kPa, x2 = 0.53	0.7385
313 K, 101.33 kPa, x2 = 0.64	0.7801
313 K, 101.33 kPa, x2 = 0.69	0.7889
313 K, 101.33 kPa, x2 = 0.73	0.7949
313 K, 101.33 kPa, x2 = 0.83	0.8127
313 K, 101.33 kPa, x2 = 0.89	0.817
313 K, 101.33 kPa, x2 = 0.91	0.8276
313 K, 101.33 kPa, x2 = 0.93	0.8251
313 K, 101.33 kPa, x2 = 0.95	0.8358
318.15 K, 101 kPa, x2 = 0.0247	0.678
318.15 K, 101 kPa, x2 = 0.0475	0.676
318.15 K, 101 kPa, x2 = 0.0769	0.671
318.15 K, 101 kPa, x2 = 0.1289	0.664
318.15 K, 101 kPa, x2 = 0.2438	0.672
318.15 K, 101 kPa, x2 = 0.3813	0.672
318.15 K, 101 kPa, x2 = 0.5136	0.698
318.15 K, 101 kPa, x2 = 0.645	0.72
318.15 K, 101 kPa, x2 = 0.768	0.744
318.15 K, 101 kPa, x2 = 0.8966	0.773
318.15 K, 101 kPa, x2 = 0.9687	0.769
323 K, 101.33 kPa, x2 = 0.37	0.6106
323 K, 101.33 kPa, x2 = 0.45	0.6123
323 K, 101.33 kPa, x2 = 0.53	0.6316
323 K, 101.33 kPa, x2 = 0.64	0.6595
323 K, 101.33 kPa, x2 = 0.69	0.6672
323 K, 101.33 kPa, x2 = 0.73	0.6698
323 K, 101.33 kPa, x2 = 0.83	0.6807
323 K, 101.33 kPa, x2 = 0.89	0.6862
323 K, 101.33 kPa, x2 = 0.91	0.6947
323 K, 101.33 kPa, x2 = 0.93	0.6952
323 K, 101.33 kPa, x2 = 0.95	0.6993
